Assay results taken from US20020132853A1, “Capsaicin receptor ligands” (priority 2000, published 2002).

These molecules were tested against T1, human capsaicin receptor (Homo sapiens, UniProt Q8NER1) (assay: Antagonist assay for Capsaicin receptor mediated calcium mobilization). Conditions: Table III, read-out: EC50 (the source's name).
T1 construct: expression consrtuct encoding the full length human capsaicin receptor; expressed in transfected cells
Type: cell-based
Experimental: Calcium Mobilization Assay
Cells transfected with expression plasmids (as described in Example 10) and thereby expressing the human capsaicin receptor are seeded and grown to 70-90% confluency in FALCON black-walled, clear-bottomed 96-well plates (#3904, BECTON-DICKINSON, Franklin Lakes, N.J.) . The culture media are emptied from the 96 well plates and FLUO-3 AM calcium sensitive dye (Molecular Probes, Eugene, OR) is added to each well (dye solution: 1 mg FLUO-3 AM, 440 uL DMSO and 440 ul 20% pluronic acid in DMSO, diluted 1:4, 50 ul diluted solution per well). Plates are covered with aluminum foil and incubated at 37° C for 1-2 hours in an environment containing 5% CO2. After the incubation the dye is emptied from the plates, and the cells are washed once with Krebs-Ringer HEPES (KRH) buffer (25 mM HEPES, 5 mM KCl, 0.96 mM NaH2PO4, 1 MM MgSO4, 2 mM CaCl2, 5 mM glucose, 1 mM probenecid, pH 7.4), and resuspended in KRH buffer.
Agonist (e.g., olvanil, capsaicin, or RTX)-induced calcium mobilization is monitored using either FLUOROSKAN ASCENT (Labsystems, Franklin, Mass.) or FLIPR (fluorometric imaging plate reader system, Molecular Devices, Sunnyvale, Calif.) instruments. Similarly, varying concentrations of the antagonists ruthenium red or capsazepine are added to cells concurrently with agonist (e.g., 25-50 nM capsaicin). For agonist-induced calcium responses, data obtained between 30 and 60 seconds after agonist application are used to generate the EC50 values. […] software (Synergy Software, Reading, Pa.) was utilized to fit the data to the equation: […]
to determine the EC50 for the response. In this equation, y is the maximum fluorescence signal, x is the concentration of the agonist or antagonist, a is the Emax, b corresponds to the EC50 or IC50 value, and finally, c is the Hill coefficient.
Assay for Determination of Capsaicin Receptor Antagonist Effects
In order to measure the ability of a test compound to antagonize (inhibit) the response of cells expressing capsaicin receptors to capsaicin or other vanilloid agonist, the EC50 of capsaicin is first determined.
An additional 20 ul of KRH buffer and 1 ul DMSO is added to each well of cells, prepared as described above. 100 ul capsaicin in KRH buffer is automatically transferred by the FLIPR instrument to each well.
Test compounds are dissolved in DMSO, diluted in 20 ul KRH buffer so that the final concentration of test compounds in the assay well is between 1 uM and 5 uM, and added to cells prepared as described above. The 96 well plates containing prepared cells and test compounds are incubated in the dark, at room temperature for 0.5-6 hours. It is important that the incubation not continue beyond 6 hours. Just prior to determining the fluorescence response, 100 ul capsaicin in KRH buffer at twice the EC50 concentration determined from the concentration response curve is automatically added by the FLIPR instrument to each well of the 96 well plate for a final sample volume of 200 ul and a final capsaicin concentration equal to the EC50. The final concentration of test compounds in the assay wells is between 1 uM and 5 uM. […] Antagonists of the capsaicin receptor decrease this response by about 20%, preferably by about 50%, and most preferably by at least 80% as compared to matched control. The concentration of antagonist required to provide a 50% decrease is the EC50 for the antagonist (also referred to as the IC50).

T1 sequence (Q8NER1 whole entry): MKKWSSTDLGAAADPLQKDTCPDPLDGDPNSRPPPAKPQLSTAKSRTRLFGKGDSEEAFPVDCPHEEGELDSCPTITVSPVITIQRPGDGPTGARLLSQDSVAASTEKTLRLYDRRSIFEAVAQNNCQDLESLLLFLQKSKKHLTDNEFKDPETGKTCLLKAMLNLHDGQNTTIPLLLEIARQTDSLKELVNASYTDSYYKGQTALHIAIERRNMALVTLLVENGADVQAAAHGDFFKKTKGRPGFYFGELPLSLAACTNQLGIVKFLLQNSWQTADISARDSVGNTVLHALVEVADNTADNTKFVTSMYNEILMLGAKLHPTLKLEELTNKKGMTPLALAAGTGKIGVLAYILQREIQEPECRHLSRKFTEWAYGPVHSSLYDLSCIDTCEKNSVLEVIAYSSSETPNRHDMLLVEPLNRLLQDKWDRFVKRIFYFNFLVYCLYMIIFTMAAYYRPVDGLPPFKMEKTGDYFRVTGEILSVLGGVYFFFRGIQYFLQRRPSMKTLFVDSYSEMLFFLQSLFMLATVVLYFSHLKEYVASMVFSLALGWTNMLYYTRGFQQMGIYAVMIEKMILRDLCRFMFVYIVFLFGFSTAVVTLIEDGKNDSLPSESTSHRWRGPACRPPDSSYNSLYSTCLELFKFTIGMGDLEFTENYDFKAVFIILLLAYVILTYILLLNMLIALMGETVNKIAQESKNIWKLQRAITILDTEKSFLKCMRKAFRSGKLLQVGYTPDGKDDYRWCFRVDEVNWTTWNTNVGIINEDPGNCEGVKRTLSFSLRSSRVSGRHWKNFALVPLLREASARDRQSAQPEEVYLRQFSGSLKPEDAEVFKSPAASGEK

| SMILES | IC50 [nM] |
| --- | --- |
| C[C@@H]1CN(c2ncccc2Cl)CCN1C(=O)Nc1ccc(C2=CCOCC2)cc1 [Compound 48, (2R)-4-(3-chloropyridin-2-yl)-N-[4-(3,6-dihydro-2H-pyran-4-yl)phenyl]-2-methylpiperazine-1-carboxamide] | < 1000 |
| C[C@@H]1CN(c2nccc3ccccc23)CCN1C(=O)Nc1ccc(C2CCCC2)cc1 [Compound 41, (2R)-N-(4-cyclopentylphenyl)-4-isoquinolin-1-yl-2-methylpiperazine-1-carboxamide] | < 1000 |
| C[C@@H]1CN(c2ncccc2N(C)C)CCN1C(=O)Nc1ccc(C(F)(F)F)cc1 [Compound 44] | < 1000 |
| CC(C)c1ccc(NC(=O)N2CCN(c3nccc4ccccc34)C[C@H]2C)cc1 [Compound 40, (2R)-N-(4-isopropylphenyl)-4-isoquinolin-1-yl-2-methylpiperazine-1-carboxamide] | < 1000 |
| CC1CN(c2ncccc2Cl)CC(C)N1C(=O)Nc1ccc(C2CCCCC2)cc1 (stereo not shown) [Compound 35, 4-(3-chloropyridin-2-yl)-N-(4-cyclohexylphenyl) 2,6-dimethylpiperazine-1-carboxamide] | < 1000 |
| C[C@@H]1CN(c2ncccc2Cl)CCN1C(=O)Nc1ccc(C(C)(C)C#N)cc1 [Compound 56, (2R)-4-(3-chloropyridin-2-yl)-N-[4-(1-cyano-1-methylethyl)phenyl]-2-methylpiperazine-1-carboxamide] | < 1000 |
| C[C@@H]1CN(c2ncccc2Cl)CCN1C(=O)Nc1ccc(C(F)(F)F)cc1 [Compound 20, (2R)-4-(3-chloropyridin-2-yl)-2-methyl-N-[4-(trifluoromethyl)phenyl]piperazine-1-carboxamide] | < 1000 |
| C[C@@H]1CN(c2nccc3ccccc23)CCN1C(=O)Nc1ccc(C(F)(F)F)cc1 [Compound 38, (2R)-4-isoquinolin-1-yl-2-methyl-N-[4-(trifluoromethyl)phenyl]piperazine-1-carboxamide] | < 1000 |
| C[C@@H]1CN(c2ncccc2C(F)(F)F)CCN1C(=O)Nc1ccc(C(C)(C)C)cc1 [Compound 29, (2R)-N-(4-tert-butylphenyl)-2-methyl-4-[3-(trifluoromethyl)pyridin-2-yl]piperazine-1-carboxamide] | < 1000 |
| CC1CN(c2ncccc2Cl)CC(C)N1C(=O)Nc1ccc(C(F)(F)F)cc1 (stereo not shown) [Compound 31, 4-(3-chloropyridin-2-yl)-2,6-dimethyl-N-[4-(trifluoromethyl)phenyl]piperazine-1-carboxamide] | < 1000 |
| Cc1nc(-c2ccc(NC(=O)N3CCN(c4ncccc4Cl)C[C@H]3C)cc2)cs1 [Compound 52, (2R)-4-(3-chloropyridin-2-yl)-2-methyl-N-[4-(2-methyl-1,3-thiazol-4-yl)phenyl]piperazine-1-carboxamide] | < 1000 |
| C[C@@H]1CN(c2nccc3ccccc23)CCN1C(=O)Nc1ccc(C2CCCCC2)cc1 [Compound 42, (2R)-N-(4-cyclohexylphenyl)-4-isoquinolin-1-yl-2-methylpiperazine-1-carboxamide] | < 1000 |
| C[C@H]1CN(c2ncccc2Cl)CCN1C(=O)Nc1ccc(C(C)(C)C)cc1 [Compound 24, (2S)-N-(4-tert-butylphenyl)-4-(3-chloropyridin-2-yl)-2-methylpiperazine-1-carboxamide] | < 1000 |
| C[C@@H]1CN(c2ncccc2Cl)CCN1C(=O)Nc1ccc(N2CCCCC2)cc1 [Compound 26, (2R)-4-(3-chloropyridin-2-yl)-2-methyl-N-(4-piperidin-1-ylphenyl)piperazine-1-carboxamide] | < 1000 |

Next, values leading:

| IC50 [nM] | SMILES |
| --- | --- |
| < 1000 | CCC1CN(c2ncccc2C(F)(F)F)CCN1C(=O)Nc1ccc(C(F)(F)F)cc1 (stereo not shown) [Compound 62, 2-ethyl-N-[4-(trifluoromethyl)phenyl]-4-[3-(trifluoromethyl)pyridin-2-yl]piperazine-1-carboxamide] |
| < 1000 | C[C@@H]1CN(c2ncccc2C#N)CCN1C(=O)Nc1ccc(C(F)(F)F)cc1 [Compound 83, (2R)-4-(3-cyanopyridin-2-yl)-2-methyl-N-[4-(trifluoromethyl)phenyl]piperazine-1-carboxamide] |
| < 1000 | C[C@@H]1CN(c2ncccc2F)CCN1C(=O)Nc1ccc(C2CCCCC2)cc1 [Compound 78, (2R)-N-(4-cyclohexylphenyl)-4-(3-fluoropyridin-2-yl)-2-methylpiperazine-1-carboxamide] |
| < 1000 | CCC1CN(c2ncccc2C(F)(F)F)CCN1C(=O)Nc1ccc(C(C)C)cc1 (stereo not shown) [Compound 63, 2-ethyl-N-(4-isopropylphenyl)-4-[3-(trifluoromethyl)pyridin-2-yl]piperazine-1-carboxamide] |
| < 1000 | CCC1CN(c2ncccc2C(F)(F)F)CCN1C(=O)Nc1ccc(C(C)(C)C)cc1 (stereo not shown) [Compound 61, N-(4-tert-butylphenyl)-2-ethyl-4-[3-(trifluoromethyl)pyridin-2-yl]piperazine-1-carboxamide] |
| < 1000 | C[C@@H]1CN(c2ncccc2F)CCN1C(=O)Nc1ccc(C2CCCC2)cc1 [Compound 79, (2R)-N-(4-cyclopentylphenyl)-4-(3-fluoropyridin-2-yl)-2-methylpiperazine-1-carboxamide] |
| < 1000 | CC(C)(C)c1ccc(NC(=O)N2CCN(c3ncccc3Cl)CC2C(C)(C)C)cc1 (stereo not shown) [Compound 64, 2-tert-butyl-N-(4-tert-butylphenyl)-4-(3-chloropyridin-2-yl)piperazine-1-carboxamide] |
| < 1000 | CCC1CN(c2ncccc2Cl)CCN1C(=O)Nc1ccc(C(C)C)cc1 (stereo not shown) [Compound 60, 4-(3-chloropyridin-2-yl)-2-ethyl-N-[4-isopropylphenyl)piperazine-1-carboxamide] |

Same assay, conditions: Table V, read-out: EC50 (the source's name)

| IC50 [nM] | SMILES |
| --- | --- |
| < 1000 | C[C@@H]1CN(c2ncccc2Cl)CCN1C(=O)Nc1ccc(I)cc1 [Compound 141, (2R)-4-(3-chloropyridin-2-yl)-N-(4-iodophenyl)-2-methylipierazine-1-carboxamide] |
| < 1000 | C[C@@H]1CN(c2ncccc2Cl)CCN1C(=O)Nc1ccc(Br)c(C(F)(F)F)c1 [Compound 156, (2R)-N-[4-bromo-3-(trifluoromethyl)phenyl]-4-(3-chloropyridin-2-yl)-2-methylpiperazine-1-carboxamide] |
| < 1000 | C[C@@H]1CN(c2ncccc2C(F)(F)F)CCN1C(=O)Nc1ccc(Cl)c(C(F)(F)F)c1 [Compound 160, (2R)-N-[4-chloro-3-(trifluoromethyl)phenyl]-2-methyl-4-[3-(trifluoromethyl)pyridin-2-yl]piperazine-1-carboxamide] |
| < 1000 | Cc1cc(NC(=O)N2CCN(c3ncccc3F)C[C@H]2C)ccc1C(F)(F)F [Compound 122, (2R)-4-(3-fluoropyridin-2-yl)-2-methyl-N-[3-methyl-4-(trifluoromethyl)phenyl]piperazine-1-carboxamide] |
| < 1000 | O=C(Nc1ccc(OC(F)(F)F)cc1)N1CCN(c2cc(C(F)(F)F)ccn2)CC1 [Compound 108, N-[4-*trifluoromethoxy)phenyl]-4-[4-(trifluoromethyl)pyririn-2-yl]piperazine-1-carboxamide] |
| < 1000 | C[C@@H]1CN(c2ncccc2Cl)CCN1C(=O)Nc1ccc(C(C(F)(F)F)(C(F)(F)F)C(F)(F)F)cc1 [Compound 148, *2R)-4-(3-chloropyridin-2-yl)-2-methyl_n_{4-[2,2,2-trifluoro-1,1-bis(trifluoromethyl)-ethyl]phenyl}piperazine-1-carboxamide] |

Same assay, conditions: Table VI, read-out: EC50 (the source's name)

| IC50 [nM] | SMILES |
| --- | --- |
| < 1000 | C[C@@H]1CN(c2ncccc2Cl)CCN1C(=S)Nc1ccc(C(C)(C)C)cc1 [Compound 168] |
| < 1000 | CC(C)c1ccc(NC(=S)N2CCN(c3ncccc3Cl)C[C@H]2C)cc1 [Compound 169] |
| < 1000 | C[C@@H]1CN(c2nccnc2Cl)CCN1C(=O)Nc1ccc(C2CCCC2)cc1 [Compound 165, (2R)-4-(3-chloropyrazin-2-yl)-2-methyl-N-{4-cyclopentyl-phenyl}piperazine-1-carboxamide] |
